Laboratory results from ChEMBL document CHEMBL5052843, “Inhibitors of apol1 and methods of using same” (2020).
pIC50: −log10 of the molar value.

How the values were obtained:
[1] = target: Apolipoprotein L1 (Homo sapiens, UniProt O14791); assay: Inhibition of APOL1 G1 variant in human HEK293-T-REx cells measured by Thallium assay; type: cell-based
[2] = test system: Trypanosoma brucei brucei; assay: Antitrypanosomal activity against Trypanosoma brucei brucei assessed as trypanosome lysis using recombinant APOL1 protein G1 variant and measured by Alamar blue based fluorescene assay; type: functional, organism-based

O=C(CCc1c(-c2ccccc2)[nH]c2c(F)cccc12)N[C@H]1CCNC1=O
pIC50 [1]: 6.60

O=C1C[C@H](NC(=O)CCc2c(-c3ccc(F)cc3)[nH]c3c(F)cc(F)cc23)C(=O)N1
pIC50 [2]: 6.60 | pIC50 [1]: 6.60

Cc1ccc(-c2[nH]c3c(F)cc(F)cc3c2CCC(=O)N[C@@H]2CCNC2=O)cc1
pIC50 [1]: > 6.60

O=C(CCc1c(-c2ccccc2)[nH]c2c(C3CC3)cccc12)N[C@@H]1C(=O)NC[C@H]1O
pIC50 [1]: > 6.60

C=Cc1cccc2c(CCC(=O)N[C@@H]3C(=O)NC[C@H]3O)c(-c3ccccc3)[nH]c12
pIC50 [1]: > 6.60

O=C(CCc1c(-c2ccc(F)cc2)[nH]c2cc(O)ccc12)N[C@H]1C(=O)NC[C@@H]1O
pIC50 [1]: < 6.00

Cc1ccc(-c2[nH]c3c(F)cc(F)cc3c2CCC(=O)N[C@H]2CCNC2=O)cc1
pIC50 [1]: > 6.60

Cc1c(F)c(F)cc2c(CCC(=O)N[C@@H]3C(=O)NC[C@H]3O)c(-c3ccc(F)cc3)[nH]c12
pIC50 [2]: > 6.60 | pIC50 [1]: > 6.60

CC(CC(=O)N[C@H]1CCNC1=O)c1c(-c2ccc(F)cc2)[nH]c2c(F)cc(F)cc12 (stereo not given in full)
pIC50 [1]: < 6.00

O=C(CCc1c(-c2ccc(F)cc2)[nH]c2c(Cl)cccc12)N[C@H]1CCNC1=O
pIC50 [2]: > 6.60 | pIC50 [1]: > 6.60

Cc1cccc2c(CCC(=O)N[C@@H]3C(=O)NC[C@H]3O)c(-c3ccc(F)cc3)[nH]c12
pIC50 [1]: > 6.60

O=C(CCc1c(-c2ccc(F)cc2)[nH]c2c(F)ccc(F)c12)N[C@H]1CCNC1=O
pIC50 [2]: < 6.00 | pIC50 [1]: < 6.00

O=C(CCc1c(-c2ccc(F)cc2)[nH]c2c(F)cc(Cl)cc12)N[C@@H]1CCNC1=O
pIC50 [1]: 6.60

C=C(C)c1cccc2c(CCC(=O)N[C@@H]3C(=O)NC[C@H]3O)c(-c3ccccc3)[nH]c12
pIC50 [1]: 6.60

O=C(CCc1c(-c2ccccc2)[nH]c2c(Cl)cc(F)cc12)N[C@@H]1C(=O)NC[C@H]1O
pIC50 [1]: > 6.60

Cc1c(F)ccc2c(CCC(=O)N[C@@H]3C(=O)NC[C@H]3O)c(-c3ccccc3)[nH]c12
pIC50 [1]: > 6.60

Cc1cc(F)cc2c(CCC(=O)N[C@@H]3C(=O)NC[C@H]3O)c(-c3ccc(F)cc3)[nH]c12
pIC50 [2]: > 6.60 | pIC50 [1]: > 6.60

C[C@@H](Cc1c(-c2ccc(F)cc2)[nH]c2c(F)cc(F)cc12)C(=O)N[C@@H]1C(=O)NC[C@H]1O
pIC50 [1]: 6.60

O=C(N[C@H]1CCNC1=O)[C@H](O)Cc1c(-c2ccccc2)[nH]c2c(F)cc(F)cc12
pIC50 [1]: < 6.00

O=C(CCc1c(-c2ccccc2)[nH]c2ccccc12)N[C@@H]1C(=O)NC[C@H]1O
pIC50 [2]: > 6.60 | pIC50 [1]: > 6.60

O=C(CCc1c(-c2ccc(F)cc2)[nH]c2c(F)cc(Cl)cc12)N[C@H]1CCNC1=O
pIC50 [1]: > 6.60

O=C(CCc1c(-c2ccc(F)c(F)c2)[nH]c2c(F)cc(F)cc12)N[C@@H]1C(=O)NC[C@H]1O
pIC50 [2]: > 6.60 | pIC50 [1]: > 6.60

O=C(CCc1c(-c2ccc(F)cc2)[nH]c2ccc(O)cc12)N[C@H]1CCNC1=O
pIC50 [2]: < 6.00 | pIC50 [1]: < 6.00

O=C(CCc1c(-c2ccccc2)[nH]c2c(F)c(F)c(F)cc12)N[C@@H]1C(=O)NC[C@H]1O
pIC50 [2]: > 6.60 | pIC50 [1]: > 6.60

O=C(CCc1c(-c2cccc(F)c2)[nH]c2c(F)cc(F)cc12)N[C@@H]1C(=O)NC[C@H]1O
pIC50 [2]: > 6.60 | pIC50 [1]: > 6.60

O=C(CSc1c(-c2ccc(F)cc2)[nH]c2ccccc12)N[C@@H]1C(=O)NC[C@H]1O
pIC50 [1]: > 6.60

O=C(CCc1c(-c2ccc(F)cc2)[nH]c2c(F)cc(OC(F)F)cc12)N[C@@H]1C(=O)NC[C@H]1O
pIC50 [1]: > 6.60

O=C(CCc1c(-c2ccc(F)cc2)[nH]c2c(OC(F)F)cc(F)cc12)N[C@@H]1C(=O)NC[C@H]1O
pIC50 [2]: 6.60 | pIC50 [1]: > 6.60

COc1ccc(-c2[nH]c3ccccc3c2CCC(=O)N[C@@H]2C(=O)NC[C@H]2O)cc1
pIC50 [2]: > 6.60 | pIC50 [1]: > 6.60

Cc1cc(F)cc2c(CCC(=O)N[C@H]3CCNC3=O)c(-c3ccc(F)cc3)[nH]c12
pIC50 [1]: > 6.60

N#Cc1cc(F)c2[nH]c(-c3ccc(F)cc3)c(CCC(=O)N[C@H]3CCNC3=O)c2c1
pIC50 [2]: < 6.00 | pIC50 [1]: < 6.00

O=C(CCc1c(-c2ccc(F)cc2)[nH]c2c(F)c(F)c(F)cc12)N[C@@H]1C(=O)NC[C@H]1O
pIC50 [1]: > 6.60

O=C(CCc1c(-c2ccc(F)cc2)[nH]c2ccc(F)cc12)N[C@H]1CCNC1=O
pIC50 [2]: > 6.60 | pIC50 [1]: > 6.60

Cc1cc(-c2[nH]c3ccccc3c2CCC(=O)N[C@@H]2C(=O)NC[C@H]2O)ccc1F
pIC50 [2]: > 6.60 | pIC50 [1]: > 6.60

O=C(CCc1c(-c2ccc(Cl)cc2)[nH]c2ccccc12)N[C@@H]1C(=O)NC[C@H]1O
pIC50 [2]: > 6.60 | pIC50 [1]: > 6.60

O=C(N[C@@H]1C(=O)NC[C@H]1O)[C@H](O)Cc1c(-c2ccc(F)cc2)[nH]c2c(F)cc(F)cc12
pIC50 [1]: < 6.00

Cc1c(F)c(F)cc2c(CCC(=O)N[C@@H]3C(=O)NC[C@H]3O)c(-c3ccccc3)[nH]c12
pIC50 [2]: > 6.60 | pIC50 [1]: > 6.60

[2H]C([2H])(C(=O)N[C@@H]1C(=O)NC[C@H]1O)C([2H])([2H])c1c(-c2ccc(F)cc2)[nH]c2c(F)cc(F)cc12
pIC50 [2]: > 6.60 | pIC50 [1]: > 6.60

CC(C)(O)c1cccc2c(CCC(=O)N[C@@H]3C(=O)NC[C@H]3O)c(-c3ccccc3)[nH]c12
pIC50 [1]: 6.60

O=C(CCc1c(-c2ccccc2)[nH]c2ccc(F)cc12)N[C@@H]1C(=O)NC[C@H]1O
pIC50 [2]: > 6.60 | pIC50 [1]: > 6.60

O=C1C[C@@H](NC(=O)CCc2c(-c3ccc(F)cc3)[nH]c3c(F)cc(F)cc23)C(=O)N1
pIC50 [2]: 6.60 | pIC50 [1]: 6.60

O=C(CCc1c(-c2ccccc2)[nH]c2cccc(F)c12)N[C@@H]1C(=O)NC[C@H]1O
pIC50 [2]: 6.60 | pIC50 [1]: > 6.60

O=C1NC[C@@H](O)[C@@H]1NC(=O)[C@@H](O)Cc1c(-c2ccc(F)cc2)[nH]c2c(F)cc(F)cc12
pIC50 [1]: < 6.00

O=C(CCc1c(-c2ccc(F)cc2)[nH]c2ccc(F)cc12)N[C@@H]1CCNC1=O
pIC50 [2]: 6.60 | pIC50 [1]: 6.60

O=C(CCc1c(-c2ccc(F)c(F)c2)[nH]c2ccccc12)N[C@@H]1C(=O)NC[C@H]1O
pIC50 [2]: > 6.60 | pIC50 [1]: > 6.60

O=C(CCc1c(-c2ccc(F)cc2)[nH]c2c(F)cc(F)cc12)N[C@H]1C[C@@H](CF)NC1=O
pIC50 [1]: < 6.00

O=C(CCc1c(-c2ccc(F)cc2)[nH]c2ccccc12)N[C@H]1C(=O)NC[C@@H]1O
pIC50 [1]: < 6.00

O=C(CCc1c(-c2ccc(F)cc2)[nH]c2c(F)cc(C(F)(F)F)cc12)N[C@@H]1C(=O)NC[C@H]1O
pIC50 [2]: > 6.60 | pIC50 [1]: > 6.60

O=C(CCc1c(-c2ccc(F)cc2)[nH]c2cc(F)c(F)cc12)N[C@@H]1C(=O)NC[C@H]1O
pIC50 [1]: > 6.60

O=C(CCc1c(-c2ccc(F)cc2)[nH]c2c(Cl)cc(F)cc12)N[C@H]1CCNC1=O
pIC50 [1]: > 6.60

O=C(CCc1c(-c2ccc(F)cc2)[nH]c2c(F)c(F)ccc12)N[C@H]1CCNC1=O
pIC50 [1]: 6.60

O=C(CCc1c(-c2ccc(Cl)cc2)[nH]c2c(Cl)cccc12)N[C@@H]1C(=O)NC[C@H]1O
pIC50 [1]: > 6.60

O=C(CCc1c(-c2ccccc2)[nH]c2c(F)cc(F)cc12)N[C@H]1CCNC1=O
pIC50 [1]: > 6.60

CC(C)c1cccc2c(CCC(=O)N[C@@H]3C(=O)NC[C@H]3O)c(-c3ccccc3)[nH]c12
pIC50 [1]: 6.60

COc1cc(F)cc2c(CCC(=O)N[C@H]3CCNC3=O)c(-c3ccc(F)cc3)[nH]c12
pIC50 [1]: 6.60

Cc1cc(F)ccc1-c1[nH]c2ccccc2c1CCC(=O)N[C@@H]1C(=O)NC[C@H]1O
pIC50 [1]: 6.60

O=C(CCc1c(-c2ccc(F)cc2)[nH]c2ccc(Cl)cc12)N[C@@H]1C(=O)NC[C@H]1O
pIC50 [1]: > 6.60

O=C(CCc1c(-c2ccccc2)[nH]c2c(Cl)cccc12)N[C@@H]1C(=O)NC[C@H]1O
pIC50 [1]: > 6.60

COc1ccc2[nH]c(-c3ccc(F)cc3)c(CCC(=O)N[C@H]3CCNC3=O)c2c1
pIC50 [1]: < 6.00

O=C(CCc1c(-c2ccc(F)cc2)[nH]c2c(C(F)(F)F)cccc12)N[C@@H]1C(=O)NC[C@H]1O
pIC50 [1]: > 6.60

CC(=O)O[C@@H]1CNC(=O)[C@H]1NC(=O)CCc1c(-c2ccc(F)cc2)[nH]c2c(F)cc(F)cc12
pIC50 [1]: < 6.00

CC(CC(=O)N[C@@H]1C(=O)NC[C@H]1O)c1c(-c2ccc(F)cc2)[nH]c2c(F)cc(F)cc12 (stereo not given in full)
pIC50 [1]: < 6.00

O=C(CCc1c(-c2ccc(OC(F)F)cc2)[nH]c2ccccc12)N[C@@H]1C(=O)NC[C@H]1O
pIC50 [1]: > 6.60

Cc1c(F)ccc2c(CCC(=O)N[C@@H]3C(=O)NC[C@H]3O)c(-c3ccc(F)cc3)[nH]c12
pIC50 [1]: > 6.60

O=C(CCc1c(-c2ccc(F)cc2)[nH]c2c(C(F)F)cc(F)cc12)N[C@@H]1C(=O)NC[C@H]1O
pIC50 [1]: > 6.60

O=C(CCc1c(-c2ccccc2)[nH]c2c(C3=CCOC3)cccc12)N[C@@H]1C(=O)NC[C@H]1O
pIC50 [1]: < 6.00

N#Cc1cccc(-c2[nH]c3ccc(F)cc3c2CCC(=O)N[C@H]2CCNC2=O)c1
pIC50 [1]: < 6.00

O=C(CCc1c(-c2ccc(F)cc2)[nH]c2c(F)cc(F)cc12)N[C@H]1C[C@H](CF)NC1=O
pIC50 [1]: < 6.00

O=C(CCc1c(-c2ccc(F)cc2)[nH]c2c(F)cc(F)cc12)N[C@H]1C(=O)NC[C@@H]1O
pIC50 [1]: 6.60

C[C@@H](Cc1c(-c2ccc(F)cc2)[nH]c2c(F)cc(F)cc12)C(=O)N[C@H]1CCNC1=O
pIC50 [1]: < 6.00

O=C(CCc1c(-c2ccc(F)cc2)[nH]c2ccccc12)N[C@@H]1C(=O)NC[C@@H]1O
pIC50 [1]: < 6.00

Cc1cc(F)c2[nH]c(-c3ccc(F)cc3)c(CCC(=O)N[C@H]3CCNC3=O)c2c1
pIC50 [1]: 6.60

Cc1ccc(-c2[nH]c3c(F)cc(F)cc3c2CCC(=O)N[C@@H]2C(=O)NC[C@H]2O)cc1
pIC50 [1]: > 6.60

O=C(CCc1c(-c2ccc(F)cc2)[nH]c2c(F)cc(F)cc12)NC1CC2(CC2)NC1=O (stereo not given)
pIC50 [1]: < 6.00

O=C(CCc1c(-c2ccccc2)[nH]c2c(C(F)(F)F)cc(F)cc12)N[C@@H]1C(=O)NC[C@H]1O
pIC50 [1]: > 6.60

O=C(CCc1c(-c2ccc(F)cc2)[nH]c2c(F)cc(F)cc12)N[C@H]1C(=O)NC[C@H]1O
pIC50 [1]: 6.60

COc1cccc2c(CCC(=O)N[C@H]3CCNC3=O)c(-c3ccc(F)cc3)[nH]c12
pIC50 [1]: < 6.00

Cc1cccc2c(CCC(=O)N[C@@H]3C(=O)NC[C@H]3O)c(-c3ccccc3)[nH]c12
pIC50 [1]: > 6.60

O=C(CCc1c(-c2ccc(F)cc2)[nH]c2ccccc12)N[C@H]1C(=O)NC[C@H]1O
pIC50 [1]: 6.60

C[C@H]1CNC(=O)[C@H]1NC(=O)CCc1c(-c2ccc(F)cc2)[nH]c2c(F)cc(F)cc12
pIC50 [1]: < 6.00

O=C(CCc1c(-c2ccccc2)[nH]c2c(C3CCOC3)cccc12)N[C@@H]1C(=O)NC[C@H]1O (stereo not given in full)
pIC50 [1]: 6.60
